Measured values published in patent US6645774B1 (Synaptic Pharmaceutical Corporation, priority 1994, dated 2003).
Like-named read-outs stand apart in the source and are kept apart here.

What was measured:
human 5HT1E receptor = human 5HT1E receptor (Homo sapiens, UniProt P28566); experiment: Cross-reactivity binding, human 5HT1E receptor; details: for Receptor (pKi) 5HT1E: cloned human receptor
human 5HT1F receptor = target: T1, human 5HT1F receptor (Homo sapiens, UniProt P30939); experiment: Cross-reactivity binding, human 5HT1F receptor; details: for Receptor (pKi) 5HT1F: cloned human receptor
T1 sequence (P30939 1-366): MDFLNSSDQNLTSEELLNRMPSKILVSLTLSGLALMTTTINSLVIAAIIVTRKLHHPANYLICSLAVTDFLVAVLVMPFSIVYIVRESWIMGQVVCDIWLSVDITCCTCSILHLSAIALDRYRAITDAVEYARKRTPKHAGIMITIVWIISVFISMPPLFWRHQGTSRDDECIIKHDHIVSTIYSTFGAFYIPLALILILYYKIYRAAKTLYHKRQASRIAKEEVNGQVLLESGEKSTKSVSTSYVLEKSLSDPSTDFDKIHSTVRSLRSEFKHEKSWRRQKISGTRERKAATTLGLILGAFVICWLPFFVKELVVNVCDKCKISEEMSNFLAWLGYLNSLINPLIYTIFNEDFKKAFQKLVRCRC

5HT1a = 5HT1a (Homo sapiens, UniProt P08908); experiment: Cross-reactivity binding, human 5HT1a receptor
[1] = target: human dopamine D3 receptor (Homo sapiens, UniProt P35462); experiment: Cross-reactivity binding, human dopamine D3 receptor
human 5HT2 receptor = human 5HT2 receptor (Homo sapiens, UniProt P28223); experiment: Cross-reactivity binding, human 5HT2 receptor
5HT1D2 = 5HT1D2 (Homo sapiens, UniProt P28222); experiment: Cross-reactivity binding, human 5HT1D2 receptor; details: cloned human receptor
human 5HT1Dα receptor = human 5HT1Dα receptor (Homo sapiens, UniProt P28221); experiment: Cross-reactivity binding, human 5HT1Dα receptor; details: cloned human receptor
human Y2 receptor [2] = target: T2, human Y2 receptor (Homo sapiens, UniProt P49146); experiment: ^125I-PYY binding of compounds to human Y2 receptor, stably transfected cells
T2 sequence (P49146 1-381): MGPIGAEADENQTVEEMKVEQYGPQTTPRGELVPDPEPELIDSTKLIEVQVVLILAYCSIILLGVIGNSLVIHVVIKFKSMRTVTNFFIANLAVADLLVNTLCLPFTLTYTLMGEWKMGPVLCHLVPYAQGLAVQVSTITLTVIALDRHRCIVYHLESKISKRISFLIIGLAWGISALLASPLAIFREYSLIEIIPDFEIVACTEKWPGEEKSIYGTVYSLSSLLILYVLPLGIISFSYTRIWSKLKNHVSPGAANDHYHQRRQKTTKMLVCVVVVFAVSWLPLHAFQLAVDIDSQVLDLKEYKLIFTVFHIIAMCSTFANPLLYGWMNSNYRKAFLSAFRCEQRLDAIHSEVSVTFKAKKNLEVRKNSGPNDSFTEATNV
Procedure: (§1) To prepare membranes from baculovirus infected cells, 2×10^7 Sf21 cells were grown in 150 mm tissue culture dishes and infected with a high-titer stock of hY5BB3.

[3] = target: human α2C adrenergic receptor (Homo sapiens, UniProt P18825); experiment: Cross-reactivity binding, cloned human α2c receptor
satiated rats = experiment: NPY-induced food intake in satiated rats; assay type: in vivo, rat; details: 300 pmole i.c.v., p<0.05 Student-Newman-Keuls
Procedure: For these determinations food intake may be measured in normal satiated rats after intracerebroventricular application (i.c.v.) of NPY in the presence or absence of the test compound. Male Sprague Dawley rats (Ciba-Geigy AG, Sisseln, Switzerland) weighing between 180 g and 220 g are used for all experiments. The rats are individually housed in stainless steel cages and maintained on an 11:13 h light-dark cycle (lights off at 18:00 h) at a controlled temperature of 21-23° C. at all times. Water and food (NAFAG lab chow pellets NAFAG, Gossau, Switzerland) are available ad libidum.
Rats under pentobarbital anesthesia are stereotaxically implanted with a stainless steel guide cannula targeted at the right lateral ventricle. Stereotaxic coordinates, with the incisor bar set −2.0 mm below interaural line, are: −0.8 mm anterior and +1.3 mm lateral to bregma. The guide cannula is placed on the dura. […]
Food intake may be measured by placing preweighed pellets into the cages at the time of NPY injection. […] The food intake of animals treated with test compound may be calculated as a percentage of the food intake of control animals i.e., animals treated with vehicle. Alternatively, food intake for each group of animals subjected to a particular experimental condition may be expressed as the mean±S.E.M. Statistical analysis is performed by analysis of variance using the Student-Newman-Keuls test.

human Y4 receptor [4] = target: T3, human Y4 receptor (Homo sapiens, UniProt P50391); experiment: ^125I-PYY binding of compounds to human Y4 receptor, stably transfected cells; details: read-out: Binding Affinity (Ki (nM) vs. ^125I-PYY) Human Receptor Y4; stably transfected cells
Procedure: as §1

human Y1 receptor = human Y1 receptor (Homo sapiens, UniProt P25929); experiment: ^125I-PYY binding of compounds to human Y1 receptor, stably transfected cells; details: read-out: Binding Affinity (Ki (nM) vs. ^125I-PYY) Human Receptor Y1; stably transfected 293 or LM(tk-) cells; compound 1 also COS-7 data
Procedure: as §1

human Y4 receptor [5] = target: T3, human Y4 receptor; experiment: ^125I-PYY binding to cloned human Y4 receptor (COS-7 membranes); details: cloned human Y-type receptors; expression system not given
rat Y4 receptor = rat Y4 receptor (Rattus norvegicus, UniProt Q63447); experiment: ^125I-PYY binding to cloned rat Y4 receptor (COS-7 membranes); details: cloned rat Y-type receptors; expression system not given
rat Y2 receptor [6] = target: T4, rat Y2 receptor (Rattus norvegicus, UniProt Q9ERC0); experiment: Antagonism of NPY- or PP-induced activation of rat Y2 receptors; assay type: cell-based; design: expressed in transfected cells; details: rat Y2, concentrations up to 1 μM
human Y2 receptor [7] = target: T2, human Y2 receptor; experiment: ^125I-PYY binding to cloned human Y2 receptor (COS-7 membranes); details: cloned human Y-type receptors; expression system not given
canine Y5 receptor = experiment: Porcine ^125I-PYY binding to canine Y5 receptor (COS-7 membranes); details: COS-7 transient, Table 20 prints no unit, nM
rat Y2 receptor [8] = target: T4, rat Y2 receptor; experiment: ^125I-PYY binding to cloned rat Y2 receptor (COS-7 membranes); details: cloned rat Y-type receptors; expression system not given

Chain of human 5HT1E receptor (P28566 whole entry): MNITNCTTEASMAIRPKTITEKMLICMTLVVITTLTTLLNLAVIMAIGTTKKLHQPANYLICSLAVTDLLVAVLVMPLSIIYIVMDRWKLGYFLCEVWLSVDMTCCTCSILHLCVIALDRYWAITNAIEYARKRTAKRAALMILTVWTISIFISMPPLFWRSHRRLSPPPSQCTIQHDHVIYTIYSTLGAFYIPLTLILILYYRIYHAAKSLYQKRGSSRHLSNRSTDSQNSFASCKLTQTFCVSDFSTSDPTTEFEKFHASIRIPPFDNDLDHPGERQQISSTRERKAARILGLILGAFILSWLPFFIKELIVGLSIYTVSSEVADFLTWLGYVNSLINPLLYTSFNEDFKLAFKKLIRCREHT
Chain of human 5HT1Dα receptor (P28221 whole entry): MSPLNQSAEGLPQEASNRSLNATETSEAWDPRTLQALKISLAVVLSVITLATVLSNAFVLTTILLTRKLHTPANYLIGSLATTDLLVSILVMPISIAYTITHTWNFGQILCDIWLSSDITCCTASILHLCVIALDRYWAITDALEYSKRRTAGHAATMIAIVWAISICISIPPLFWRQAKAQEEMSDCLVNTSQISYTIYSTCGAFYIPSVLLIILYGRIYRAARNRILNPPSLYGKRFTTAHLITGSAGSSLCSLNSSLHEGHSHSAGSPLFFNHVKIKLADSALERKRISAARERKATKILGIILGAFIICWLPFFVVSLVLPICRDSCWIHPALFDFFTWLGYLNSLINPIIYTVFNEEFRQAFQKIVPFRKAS
Chain of 5HT1D2 (P28222 whole entry): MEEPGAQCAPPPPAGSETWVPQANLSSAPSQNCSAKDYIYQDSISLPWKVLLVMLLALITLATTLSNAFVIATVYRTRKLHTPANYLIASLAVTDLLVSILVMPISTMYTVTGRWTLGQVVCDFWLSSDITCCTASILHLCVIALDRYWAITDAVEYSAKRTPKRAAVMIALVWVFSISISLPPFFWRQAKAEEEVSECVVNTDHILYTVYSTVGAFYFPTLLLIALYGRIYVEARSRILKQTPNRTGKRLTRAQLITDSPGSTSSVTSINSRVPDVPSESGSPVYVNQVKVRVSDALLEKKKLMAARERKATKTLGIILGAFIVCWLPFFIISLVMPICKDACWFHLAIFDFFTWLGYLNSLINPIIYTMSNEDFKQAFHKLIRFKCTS
Chain of human 5HT2 receptor (P28223 whole entry): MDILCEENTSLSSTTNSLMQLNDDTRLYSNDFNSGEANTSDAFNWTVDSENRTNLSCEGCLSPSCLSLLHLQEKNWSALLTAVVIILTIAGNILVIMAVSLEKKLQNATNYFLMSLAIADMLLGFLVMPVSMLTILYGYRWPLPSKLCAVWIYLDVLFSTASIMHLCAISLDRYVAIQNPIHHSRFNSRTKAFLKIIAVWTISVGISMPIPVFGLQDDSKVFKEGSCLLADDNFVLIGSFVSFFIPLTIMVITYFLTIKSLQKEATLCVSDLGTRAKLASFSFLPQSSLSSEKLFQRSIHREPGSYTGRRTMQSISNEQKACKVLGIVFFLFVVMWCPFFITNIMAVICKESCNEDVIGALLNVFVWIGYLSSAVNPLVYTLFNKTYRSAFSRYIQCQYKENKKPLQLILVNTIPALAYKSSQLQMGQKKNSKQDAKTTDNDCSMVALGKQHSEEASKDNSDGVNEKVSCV
T4 sequence (Q9ERC0 1-381): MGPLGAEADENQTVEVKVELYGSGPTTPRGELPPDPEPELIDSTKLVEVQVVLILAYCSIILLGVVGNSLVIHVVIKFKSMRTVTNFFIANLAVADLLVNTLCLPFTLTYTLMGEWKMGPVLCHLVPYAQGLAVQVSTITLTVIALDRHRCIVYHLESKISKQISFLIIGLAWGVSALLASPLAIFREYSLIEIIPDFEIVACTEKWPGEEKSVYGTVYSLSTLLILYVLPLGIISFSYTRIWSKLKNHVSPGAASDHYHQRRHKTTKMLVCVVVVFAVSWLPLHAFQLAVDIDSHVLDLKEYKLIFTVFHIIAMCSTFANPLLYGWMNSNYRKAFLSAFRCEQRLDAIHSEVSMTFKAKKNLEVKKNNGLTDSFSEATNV
Chain of 5HT1a (P08908 whole entry): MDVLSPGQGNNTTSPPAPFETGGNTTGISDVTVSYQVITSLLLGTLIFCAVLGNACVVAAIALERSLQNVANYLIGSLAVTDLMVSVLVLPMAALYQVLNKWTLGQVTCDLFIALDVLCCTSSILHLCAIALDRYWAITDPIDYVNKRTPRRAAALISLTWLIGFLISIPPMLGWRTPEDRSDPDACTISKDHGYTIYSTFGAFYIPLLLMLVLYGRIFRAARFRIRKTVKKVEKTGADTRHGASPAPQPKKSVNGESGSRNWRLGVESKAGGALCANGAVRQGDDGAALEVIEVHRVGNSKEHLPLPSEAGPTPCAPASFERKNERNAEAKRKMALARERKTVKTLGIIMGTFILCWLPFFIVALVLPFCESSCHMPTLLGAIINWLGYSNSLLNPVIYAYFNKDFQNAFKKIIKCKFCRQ
Chain of human dopamine D3 receptor (P35462 whole entry): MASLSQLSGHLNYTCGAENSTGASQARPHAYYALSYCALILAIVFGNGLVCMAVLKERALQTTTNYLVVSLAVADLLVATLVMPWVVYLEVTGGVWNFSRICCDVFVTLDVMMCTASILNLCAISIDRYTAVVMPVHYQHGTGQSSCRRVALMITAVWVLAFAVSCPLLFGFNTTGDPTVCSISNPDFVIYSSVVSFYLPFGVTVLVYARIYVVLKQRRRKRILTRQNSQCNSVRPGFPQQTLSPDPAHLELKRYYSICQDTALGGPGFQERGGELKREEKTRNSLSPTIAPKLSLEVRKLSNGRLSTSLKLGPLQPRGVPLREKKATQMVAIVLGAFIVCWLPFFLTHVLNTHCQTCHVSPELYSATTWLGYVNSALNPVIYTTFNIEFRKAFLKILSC
T3 sequence (P50391 whole entry): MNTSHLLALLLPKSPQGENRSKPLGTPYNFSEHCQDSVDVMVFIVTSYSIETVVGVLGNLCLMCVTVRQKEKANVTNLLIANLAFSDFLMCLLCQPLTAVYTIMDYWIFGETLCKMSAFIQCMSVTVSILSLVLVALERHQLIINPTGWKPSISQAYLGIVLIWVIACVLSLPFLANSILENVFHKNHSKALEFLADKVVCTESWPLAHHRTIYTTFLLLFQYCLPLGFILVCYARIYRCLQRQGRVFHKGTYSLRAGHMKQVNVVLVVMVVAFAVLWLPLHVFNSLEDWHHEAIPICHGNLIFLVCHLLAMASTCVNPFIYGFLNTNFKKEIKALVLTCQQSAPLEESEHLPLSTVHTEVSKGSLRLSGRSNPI
Chain of human α2C adrenergic receptor (P18825 whole entry): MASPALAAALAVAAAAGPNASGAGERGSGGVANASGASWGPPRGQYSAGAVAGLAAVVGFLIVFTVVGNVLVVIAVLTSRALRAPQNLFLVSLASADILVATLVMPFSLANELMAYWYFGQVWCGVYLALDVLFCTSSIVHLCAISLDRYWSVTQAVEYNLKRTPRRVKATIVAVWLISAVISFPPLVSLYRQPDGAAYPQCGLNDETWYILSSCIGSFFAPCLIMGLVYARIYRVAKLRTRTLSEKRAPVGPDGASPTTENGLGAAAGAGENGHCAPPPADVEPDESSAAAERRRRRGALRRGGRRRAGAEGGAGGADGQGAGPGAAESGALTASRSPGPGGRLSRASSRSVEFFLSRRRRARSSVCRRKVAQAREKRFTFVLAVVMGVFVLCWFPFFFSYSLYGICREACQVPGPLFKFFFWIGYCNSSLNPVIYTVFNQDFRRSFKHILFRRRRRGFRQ
Chain of rat Y4 receptor (Q63447 whole entry): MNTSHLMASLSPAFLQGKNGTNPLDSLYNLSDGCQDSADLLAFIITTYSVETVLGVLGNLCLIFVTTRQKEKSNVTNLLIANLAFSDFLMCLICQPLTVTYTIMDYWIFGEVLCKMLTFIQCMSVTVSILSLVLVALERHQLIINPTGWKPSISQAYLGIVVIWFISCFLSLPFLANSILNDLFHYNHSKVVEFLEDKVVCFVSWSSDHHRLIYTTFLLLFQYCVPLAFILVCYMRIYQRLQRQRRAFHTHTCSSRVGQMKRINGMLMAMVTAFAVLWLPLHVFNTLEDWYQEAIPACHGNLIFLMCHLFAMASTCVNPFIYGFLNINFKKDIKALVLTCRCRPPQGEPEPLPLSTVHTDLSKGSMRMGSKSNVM
Chain of human Y1 receptor (P25929 whole entry): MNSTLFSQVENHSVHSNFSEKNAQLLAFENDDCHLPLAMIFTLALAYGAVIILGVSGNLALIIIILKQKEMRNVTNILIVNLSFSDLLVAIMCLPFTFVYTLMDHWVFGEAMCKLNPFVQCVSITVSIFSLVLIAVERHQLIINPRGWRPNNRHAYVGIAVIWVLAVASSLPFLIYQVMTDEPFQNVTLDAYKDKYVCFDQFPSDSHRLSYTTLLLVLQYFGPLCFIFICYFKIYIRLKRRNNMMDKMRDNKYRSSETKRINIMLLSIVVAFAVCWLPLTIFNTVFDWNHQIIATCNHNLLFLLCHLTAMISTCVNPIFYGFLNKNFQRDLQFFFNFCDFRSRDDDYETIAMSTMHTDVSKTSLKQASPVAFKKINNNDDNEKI

Compound	Receptor (pKi) 5HT1E (human 5HT1E receptor)	Receptor (pKi) 5HT1F (human 5HT1F receptor)	Receptor (pKi) 5HT1D2 (5HT1D2)	Receptor (pKi) 5HT1Dα (human 5HT1Dα receptor)	also measured
Cl.Nc1nc(NC[C@H]2CC[C@H](CNS(=O)(=O)c3cccc4ccccc34)CC2)nc2ccccc12 [Compound 5, trans-Naphthalene-1-sulfonic Acid {4-[(4-amino-quinazolin-2-ylamino)-methyl]-cyclohexylmethyl}-amide Hydrochloride]	5.30	5.30			Ki (5HT1a; cloned human receptor, read-out: Receptor (pKi) 5HT1a (converted)): 0.468 µM; Ki ([1]; cloned human receptor, read-out: Receptor (pKi) D3 (converted)): 0.0575 µM; Ki (human 5HT2 receptor; cloned human receptor, read-out: Receptor (pKi) 5HT2 (converted)): 0.389 µM
COc1ccc(Nc2nc(Nc3ccccc3)c3cccc(OC)c3n2)cc1.Cl [Compound 9, 8-Methoxy-2-(4-methoxy-phenylamino)-4-phenylamino-quinazoline Hydrochloride]	5.30	5.30	5.30	5.30	Ki (human Y2 receptor [2]): > 100000 nM
Cl.Cl.c1ccc(Nc2nc(Nc3ccc(N4CCCCC4)cc3)nc3ccccc23)cc1 [Compound 6, 2-[4-(Piperidin-1-yl)-phenylamino]-4-phenylamino-quinazoline Dihydrochloride]	5.30	5.30	5.30	5.30	Ki [3]: 0.437 µM
Cl.c1ccc(Nc2nc(Nc3ccccc3)c3ccccc3n2)cc1 [Compound 1, 2,4-Diphenylamino-quinazoline Hydrochloride]	5.30	5.30	5.30		Ki (5HT1a): 30.9 µM; Ki [1]: 2.04 µM; Ki (human 5HT2 receptor): 0.457 µM
CNS(=O)(=O)Cc1ccc(Nc2nc(Nc3ccccc3)c3cc(OC)ccc3n2)cc1.Cl [Compound 10, N-Methyl-[4-(6-methoxy-4-phenylamino-quinazolin-2-ylamino)-phenyl]-methanesulfonamide Hydrochloride]	5.30	5.30	5.30	5.30	Ki (human Y2 receptor [2]): > 100000 nM
O=S(=O)(NC[C@H]1CC[C@H](CNC(CO)Cc2ccc(Cl)cc2)CC1)c1cccc2ccccc12 (stereo partly drawn) [Compound 25, Naphthalene-1-sulfonic Acid trans-(4-{[2-(4-Chlorophenyl)-1-hydroxymethyl-ethylamino]-methyl}cyclohexylmethyl)-amide]					Ki (human 5HT1E receptor): 5.01 µM; Ki (human 5HT1F receptor): 5.01 µM
NPY: neuropeptide Y; porcine NPY, 300 pmole i.c.v., in the feeding studies					effect on food intake vs vehicles (satiated rats): significantly induce food intake
2-(Naphthalen-1-yl)-3-phenylpropane-1,2-diamine [Compound 28]					Ki (human Y4 receptor [4]): > 100000 nM; Ki (human Y1 receptor): > 100000 nM; Ki (human Y2 receptor [2]; read-out: Binding Affinity (Ki (nM) vs. ^125I-PYY) Human Receptor Y2, stably transfected 293 or LM(tk-) cells, compound 1 also COS-7 data): > 75000 nM
Cl.O=[N+]([O-])c1ccccc1S(=O)(=O)NC[C@H]1CC[C@H](CNCC2CCc3ccccc3C2)CC1 (stereo partly drawn) [Compound 20]	5.30	5.30			
CNS(=O)(=O)Cc1ccc(Nc2nc(Nc3ccccc3)c3ccccc3n2)cc1.Cl [Compound 11, N-Methyl-[4-(4-phenylamino-quinazolin-2-ylamino)-phenyl]-methanesulfonamide Hydrochloride]	5.30	5.30	5.30	5.30	Ki (human Y2 receptor [2]): > 100000 nM
NC(N)=NCCC[C@@H](NC(=O)C(c1ccccc1)c1ccccc1)C(=O)NCc1ccc(O)cc1 [BIBP 3226]					Ki (human Y4 receptor [5]): 8 µM; Ki (rat Y4 receptor): 0.42 µM; antagonism of NPY- or PP-induced activation (rat Y2 receptor [6]): no evidence for antagonism; Ki (human Y2 receptor [7]): 6.9 µM; Ki (canine Y5 receptor): 17000 nM; Ki (rat Y2 receptor [8]): 66 µM
Cl.O=S(=O)(NC[C@H]1CC[C@H](CNCC2CCc3ccccc3C2)CC1)c1cccc2ccccc12 (stereo partly drawn) [Compound 19]	5.30	5.30	5.30		
